The text below walks through data of article PMC4358773, “Highly specific ubiquitin-competing molecules effectively promote frataxin accumulation and partially rescue the aconitase defect in Friedreich ataxia cells” (Neurobiology of Disease, 2015).

For the assay, the target named is T1, frataxin precursor (aa 1-210) (Homo sapiens, UniProt Q16595).
T1 construct: gene FXN; full-length precursor, aa 1-210, recombinant, expressed and purified by GenScript
T1 sequence (Q16595 1-210): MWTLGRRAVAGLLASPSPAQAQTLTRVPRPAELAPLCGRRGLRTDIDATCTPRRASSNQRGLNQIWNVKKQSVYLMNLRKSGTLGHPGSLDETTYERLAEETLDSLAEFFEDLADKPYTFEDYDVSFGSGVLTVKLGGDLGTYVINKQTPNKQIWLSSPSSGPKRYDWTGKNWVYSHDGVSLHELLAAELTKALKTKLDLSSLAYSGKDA
Description: intrinsic Trp fluorescence quenching, hyperbolic isotherm. As to conditions: 20 °C; 2 μM protein; ligand 0.5-25 μM; half-saturation binding constant; read-out: L1/2.

`C/C(=N\NC(=O)c1ccc(C)cc1C)c1ccc2c(c1)Nc1ccccc1S2` [UCM53]: the Kd is 2900 ± 300 nM. The figure for `C/C(=N\NC(=O)c1ccccc1)c1ccc2c(c1)Nc1ccccc1S2` [UCM108] is 2300 ± 300 nM.
